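Cells were grown in 96-well plates and exposed to each compound for 48 hours at five concentrations; endpoints were interpolated linearly between bracketing concentrations, or set to the highest concentration if not reached. GI50 is the concentration that inhibits growth by half.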 Calls of active or inactive are those of the source. Rule as the data show it: active = GI50 up to about 1.1 µM and inactive = higher.
How the values were obtained:
Test in all cases: NCI-60 cell line screen, 48 h
[1] = tested on: 786-0
[2] = tested on: A498
[3] = tested on: A549
[4] = tested on: ACHN
[5] = tested on: BT-549
[6] = tested on: CAKI-1
[7] = tested on: CCRF-CEM
[8] = tested on: COLO 205
[9] = tested on: DU-145
[10] = tested on: EKVX
[11] = tested on: HCC 2998
[12] = tested on: HCT-116
[13] = tested on: HCT-15
[14] = tested on: HL-60
[15] = tested on: HOP-62
[16] = tested on: HOP-92
[17] = tested on: HT-29
[18] = tested on: Hs-578T
[19] = tested on: IGROV-1
[20] = tested on: K562
[21] = tested on: KM12
[22] = tested on: LOX IMVI
[23] = tested on: M14
[24] = tested on: MCF7
[25] = tested on: MDA-MB-231
[26] = tested on: MDA-MB-435
[27] = tested on: MDA-N
[28] = tested on: MOLT-4
[29] = tested on: Malme-3M
[30] = tested on: NCI-H226
[31] = tested on: NCI-H23
[32] = tested on: NCI-H460
[33] = tested on: NCI-H522
[34] = tested on: NCI/ADR-RES
[35] = tested on: OVCAR-3
[36] = tested on: OVCAR-4
[37] = tested on: OVCAR-5
[38] = tested on: OVCAR-8
[39] = tested on: PC-3
[40] = tested on: RPMI-8226
[41] = tested on: RXF 393
[42] = tested on: SF-268
[43] = tested on: SF-295
[44] = tested on: SF-539
[45] = tested on: SK-MEL-28
[46] = tested on: SK-MEL-2
[47] = tested on: SK-MEL-5
[48] = tested on: SK-OV-3
[49] = tested on: SN12C
[50] = tested on: SNB-19
[51] = tested on: SNB-75
[52] = tested on: SR
[53] = tested on: SW-620
[54] = tested on: T47D
[55] = tested on: TK-10
[56] = tested on: U-251
[57] = tested on: UACC-257
[58] = tested on: UACC-62
[59] = tested on: UO-31

## COc1cc2nc(-c3ccccc3)cc(O)c2cc1OC
[1]
  GI50: 27.8 µM (inactive)
[2]
  GI50: 40.6 µM (inactive)
[3]
  GI50: 18.5 µM (inactive)
[4]
  GI50: 41.1 µM (inactive)
[5]
  GI50: > 100 µM (inactive)
[6]
  GI50: 23.6 µM (inactive)
[7]
  GI50: 8 µM (inactive)
[8]
  GI50: 4.2 µM (inactive)
[9]
  GI50: 54 µM (inactive)
[10]
  GI50: > 100 µM (inactive)
[11]
  GI50: 16.5 µM (inactive)
[12]
  GI50: 6.1 µM (inactive)
[13]
  GI50: 10.2 µM
[14]
  GI50: 5.78 µM (inactive)
[15]
  GI50: 19 µM (inactive)
[16]
  GI50: 33.7 µM (inactive)
[17]
  GI50: 9.84 µM (inactive)
[18]
  GI50: 25.1 µM (inactive)
[19]
  GI50: 28.2 µM (inactive)
[20]
  GI50: 4.76 µM (inactive)
[21]
  GI50: 3.81 µM (inactive)
[22]
  GI50: 10.7 µM (inactive)
[23]
  GI50: 9.02 µM (inactive)
[24]
  GI50: 2.54 µM (inactive)
[25]
  GI50: 26.7 µM (inactive)
[26]
  GI50: 2.86 µM (inactive)
[27]
  GI50: 2.18 µM (inactive)
[28]
  GI50: 17.6 µM (inactive)
[29]
  GI50: > 50.6 µM (inactive)
[30]
  GI50: 14.4 µM (inactive)
[31]
  GI50: 21.8 µM (inactive)
[32]
  GI50: 11.2 µM (inactive)
[33]
  GI50: 5.83 µM (inactive)
[34]
  GI50: 54.8 µM (inactive)
[35]
  GI50: 4.44 µM (inactive)
[36]
  GI50: > 73.3 µM (inactive)
[37]
  GI50: 41.1 µM (inactive)
[38]
  GI50: 35.1 µM (inactive)
[39]
  GI50: 23 µM (inactive)
[40]
  GI50: 27 µM (inactive)
[41]
  GI50: 21.2 µM (inactive)
[42]
  GI50: 41.6 µM (inactive)
[43]
  GI50: 18.5 µM (inactive)
[44]
  GI50: 14.3 µM (inactive)
[45]
  GI50: 36.2 µM (inactive)
[46]
  GI50: 22.4 µM (inactive)
[47]
  GI50: 5.78 µM (inactive)
[48]
  GI50: 35.6 µM (inactive)
[49]
  GI50: 31.4 µM (inactive)
[50]
  GI50: 25.2 µM (inactive)
[51]
  GI50: 12.1 µM (inactive)
[52]
  GI50: 6 µM (inactive)
[53]
  GI50: 10.8 µM (inactive)
[54]
  GI50: > 100 µM (inactive)
[55]
  GI50: 55.8 µM (inactive)
[56]
  GI50: 6.95 µM (inactive)
[57]
  GI50: 63.7 µM (inactive)
[58]
  GI50: 10.8 µM (inactive)
[59]
  GI50: 52 µM (inactive)

## COC(=O)C#Cc1ccc([N+](=O)[O-])cc1
[1]
  GI50: 2.32 µM (inactive)
[2]
  GI50: 9.91 µM (inactive)
[3]
  GI50: 2.74 µM (inactive)
[4]
  GI50: 1.41 µM (inactive)
[5]
  GI50: 1.49 µM (inactive)
[6]
  GI50: 1.38 µM (inactive)
[7]
  GI50: 0.532 µM (active)
[8]
  GI50: 1.83 µM (inactive)
[9]
  GI50: 1.76 µM (inactive)
[10]
  GI50: 1.76 µM (inactive)
[11]
  GI50: 1.76 µM (inactive)
[12]
  GI50: 1.15 µM (inactive)
[13]
  GI50: 0.502 µM
[14]
  GI50: 1.77 µM (inactive)
[15]
  GI50: 2.65 µM (inactive)
[16]
  GI50: 2.05 µM (inactive)
[17]
  GI50: 1.6 µM (inactive)
[18]
  GI50: 2.84 µM (inactive)
[19]
  GI50: 1.81 µM (inactive)
[20]
  GI50: 2.47 µM (inactive)
[21]
  GI50: 1.8 µM (inactive)
[22]
  GI50: 0.995 µM (active)
[23]
  GI50: 2.05 µM (inactive)
[24]
  GI50: 1.91 µM (inactive)
[25]
  GI50: 2.09 µM (inactive)
[26]
  GI50: 2.18 µM (inactive)
[27]
  GI50: 2.54 µM (inactive)
[28]
  GI50: 0.659 µM (active)
[29]
  GI50: 2.27 µM (inactive)
[30]
  GI50: 2.47 µM (inactive)
[31]
  GI50: 1.62 µM (inactive)
[32]
  GI50: 13.1 µM (inactive)
[33]
  GI50: 1.75 µM (inactive)
[34]
  GI50: 2.87 µM (inactive)
[35]
  GI50: 1.59 µM (inactive)
[36]
  GI50: 1.7 µM (inactive)
[37]
  GI50: 2.16 µM (inactive)
[38]
  GI50: 2.55 µM (inactive)
[39]
  GI50: 3.73 µM (inactive)
[40]
  GI50: 0.665 µM (active)
[41]
  GI50: 1.9 µM (inactive)
[42]
  GI50: 4.16 µM (inactive)
[43]
  GI50: 4.24 µM (inactive)
[44]
  GI50: 1.69 µM (inactive)
[45]
  GI50: 1.96 µM (inactive)
[46]
  GI50: 3.69 µM (inactive)
[47]
  GI50: 2.4 µM (inactive)
[48]
  GI50: 8.32 µM (inactive)
[49]
  GI50: 1.67 µM (inactive)
[50]
  GI50: 2.75 µM (inactive)
[51]
  GI50: 3.14 µM (inactive)
[52]
  GI50: 0.325 µM (active)
[53]
  GI50: 1.19 µM (inactive)
[54]
  GI50: 1.45 µM (inactive)
[55]
  GI50: 1.89 µM (inactive)
[56]
  GI50: 1.88 µM (inactive)
[57]
  GI50: 2.37 µM (inactive)
[58]
  GI50: 2.69 µM (inactive)
[59]
  GI50: 1.42 µM (inactive)

## C/C(=N\NC(=S)NCCCNC(=S)N/N=C(\C)c1ccccn1)c1ccccn1
[1]
  GI50: 0.617 µM (active)
[2]
  GI50: 4.97 µM (inactive)
[3]
  GI50: 3.48 µM (inactive)
[4]
  GI50: 1.4 µM (inactive)
[5]
  GI50: 3.13 µM (inactive)
[7]
  GI50: 1.16 µM (inactive)
[8]
  GI50: 1.8 µM (inactive)
[9]
  GI50: 2.26 µM (inactive)
[10]
  GI50: 3.79 µM (inactive)
[11]
  GI50: 5.71 µM (inactive)
[12]
  GI50: 2.88 µM (inactive)
[13]
  GI50: 1.3 µM
[14]
  GI50: 1.35 µM (inactive)
[15]
  GI50: 1.94 µM (inactive)
[16]
  GI50: 6.73 µM (inactive)
[17]
  GI50: 2 µM (inactive)
[18]
  GI50: > 47.6 µM (inactive)
[19]
  GI50: 3.9 µM (inactive)
[20]
  GI50: 4.06 µM (inactive)
[21]
  GI50: 2.94 µM (inactive)
[22]
  GI50: 2.81 µM (inactive)
[23]
  GI50: 0.733 µM (active)
[24]
  GI50: 3.34 µM (inactive)
[25]
  GI50: 6.21 µM (inactive)
[26]
  GI50: 3.23 µM (inactive)
[27]
  GI50: 9.27 µM (inactive)
[28]
  GI50: 2.51 µM (inactive)
[29]
  GI50: 2.42 µM (inactive)
[30]
  GI50: 6.92 µM (inactive)
[31]
  GI50: 7.33 µM (inactive)
[32]
  GI50: 1.29 µM (inactive)
[33]
  GI50: 1.37 µM (inactive)
[34]
  GI50: 2.22 µM (inactive)
[35]
  GI50: 2.95 µM (inactive)
[36]
  GI50: 5.28 µM (inactive)
[37]
  GI50: 7.94 µM (inactive)
[38]
  GI50: 1.71 µM (inactive)
[39]
  GI50: 9.1 µM (inactive)
[40]
  GI50: 4.2 µM (inactive)
[41]
  GI50: 3.03 µM (inactive)
[42]
  GI50: 2.62 µM (inactive)
[43]
  GI50: 5.27 µM (inactive)
[44]
  GI50: 2.42 µM (inactive)
[45]
  GI50: 4.99 µM (inactive)
[46]
  GI50: 2.06 µM (inactive)
[47]
  GI50: 2.02 µM (inactive)
[48]
  GI50: 2.01 µM (inactive)
[49]
  GI50: 1.98 µM (inactive)
[50]
  GI50: > 34.8 µM (inactive)
[51]
  GI50: 2.95 µM (inactive)
[52]
  GI50: 0.968 µM (active)
[53]
  GI50: 22.5 µM (inactive)
[54]
  GI50: 3.51 µM (inactive)
[55]
  GI50: 0.619 µM (active)
[56]
  GI50: 2.77 µM (inactive)
[57]
  GI50: 2.75 µM (inactive)
[58]
  GI50: 2.66 µM (inactive)
[59]
  GI50: 1.83 µM (inactive)
